Results as given in patent US11529341B2, “Bicyclic compounds as inhibitors of PD1/PD-L1 interaction/activation” (JUBILANT PRODEL LLC, priority 2018, dated 2022).

target: T1, PD-1/PD-L1 interaction (Homo sapiens, UniProt Q9NZQ7); assay: PD-1/PD-L1 Homogenous Time-Resolved Fluorescence (HTRF) binding assay (CisBio kit); conditions: Biochemical PD1/PD-L1 inhibition
T1 construct: Tag1 (undisclosed kit tag); purchased CisBio 63ADK000CPAPEG
Experimental: PD-L1 Enzyme Assay: Homogenous Time-Resolved Fluorescence (HTRF) Binding Assay
All binding studies were performed using PD-1/PD-L1 Binding Assay Kit from CisBio (Catalog #63ADK000CPAPEG), according to the manufacturer's protocol. The interaction between Tag1-PD-1 and […] was detected by anti-Tag1-Eu^3+ (HTRF donor) and anti-Tag2-XL665 (HTRF acceptor). When the donor and acceptor antibodies were brought to close proximity due to PD-1 and PD-L1 binding, excitation of the donor antibody triggered fluorescent resonance energy transfer (FRET) towards the acceptor antibody, which in turn emitted specifically at 665 nm. This specific signal is positively proportional to PD-1/PD-L1 interaction. The compounds blocking PD-1/PD-L1 interaction will cause a reduction in HTRF signal. The necessary reagents were mixed in the following order: 2 μl compounds (or diluents buffer), 4 μl PD-L1 protein, 4 μl PD-1 protein. After an incubation of 15 minutes, 5 μl of anti-Tag1-Eu^3+ and 5 μl of anti-Tag2-XL665 were added. The plate was sealed and incubated at room temperature for 1 h. The fluorescence emission was read at two different wavelengths (665 nm and 620 nm) on a BMG PheraStar® multi-plate reader. Results were calculated from the 665 nm and 620 nm fluorescence signal and expressed in HTRF ratio=(665 nm/620 nm)×10^4.

T1 sequence (Q9NZQ7 19-238 limits assumed): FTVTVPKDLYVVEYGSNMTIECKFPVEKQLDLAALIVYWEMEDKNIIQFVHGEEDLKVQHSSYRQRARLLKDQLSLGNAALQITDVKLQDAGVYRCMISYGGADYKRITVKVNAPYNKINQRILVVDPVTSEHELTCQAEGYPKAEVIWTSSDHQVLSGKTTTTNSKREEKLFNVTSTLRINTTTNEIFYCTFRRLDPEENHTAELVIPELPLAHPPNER

| IC50 | Structure (SMILES) |
| --- | --- |
| 100 to 500 nM | Cc1c(COc2cc(OC[C@H]3C[C@H]3C(=O)O)c(CN3CCCC[C@H]3C(=O)O)c3c2CCC3)cccc1-c1ccccc1 [Compound 82, (S)-1-((5-(((1S,2R)-2-carboxycyclopropyl)methoxy)-7-((2-methyl-[1,1′-biphenyl]-3-yl)methoxy)-2,3-dihydro-1H-inden-4-yl)methyl)piperidine-2-carboxylic acid] |
| > 500 nM | COc1cc(OCc2cccc(-c3cccc(OCCCN4CCC(F)(F)C4)c3C)c2C)c2c(c1CN1C[C@H](O)C[C@H]1C(=O)O)CCC2 [Compound 33, (2S,4R)-1-((7-((3′-(3-(3,3-difluoropyrrolidin-1-yl)propoxy)-2,2′-dimethyl-[1,1′-biphenyl]-3-yl)methoxy)-5-methoxy-2,3-dihydro-1H-inden-4-yl)methyl)-4-hydroxypyrrolidine-2-carboxylic acid] |
| > 500 nM | COc1cc(OCc2cccc(-c3ccccc3)c2C(F)(F)F)c2c(c1CN1CCCC[C@H]1C(=O)O)CCC2 [Compound 75, (S)-1-((5-methoxy-7-((2-(trifluoromethyl)-[1,1′-biphenyl]-3-yl)methoxy)-2,3-dihydro-1H-inden-4-yl)methyl)piperidine-2-carboxylic acid] |
| < 100 nM | Cc1c(COc2cc(OCc3cncc(F)c3)c(CN3CCCC[C@H]3C(=O)O)c3c2CCC3)cccc1-c1ccccc1 [Compound 9, (S)-1-((5-((5-fluoropyridin-3-yl)methoxy)-7-((2-methyl-[1,1′-biphenyl]-3-yl)methoxy)-2,3-dihydro-1H-inden-4-yl)methyl)piperidine-2-carboxylic acid] |
| > 500 nM | COc1cc(OCc2cccc(-c3ccccc3)c2C(F)(F)F)c2c(c1CN1C[C@H](O)C[C@H]1C(=O)O)CCC2 [Compound 76, (2S,4R)-4-hydroxy-1-((5-methoxy-7-((2-(trifluoromethyl)-[1,1′-biphenyl]-3-yl)methoxy)-2,3-dihydro-1H-inden-4-yl)methyl)pyrrolidine-2-carboxylic acid] |
| < 100 nM | Cc1c(COc2cc(OCc3cncc(C#N)c3)c(CN3CC4(CC4)C[C@H]3C(=O)O)c3c2CCC3)cccc1-c1ccccc1 [Compound 52, (S)-5-((5-((5-cyanopyridin-3-yl)methoxy)-7-((2-methyl-[1,1′-biphenyl]-3-yl)methoxy)-2,3-dihydro-1H-inden-4-yl)methyl)-5-azaspiro[2.4]heptane-6-carboxylic acid] |
| < 100 nM | Cc1c(COc2cc(OCc3cccc(C#N)c3)c(CN3CCCC[C@H]3C(=O)O)c3c2CCC3)cccc1-c1ccccc1 [Compound 8, (S)-1-((5-((3-cyanobenzyl)oxy)-7-((2-methyl-[1,1′-biphenyl]-3-yl)methoxy)-2,3-dihydro-1H-inden-4-yl)methyl)piperidine-2-carboxylic acid] |
| > 500 nM | Cc1c(COc2ccc(CN3CCCC[C@H]3C(=O)O)c3c2CCC3)cccc1-c1cccc2c1ccn2CCCN1CCC(F)(F)C1 [Compound 3, (S)-1-((7-((3-(1-(3-(3,3-difluoropyrrolidin-1-yl)propyl)-1H-indol-4-yl)-2-methylbenzyl)oxy)-2,3-dihydro-1H-inden-4-yl)methyl)piperidine-2-carboxylic acid] |

Second part, the compound before the results:

| Structure (SMILES) | IC50 |
| --- | --- |
| COc1cc(OCc2cccc(-c3ccccc3)c2C#N)c2c(c1CN1CCC[C@@H]3C[C@@]31C(=O)O)CCC2 (racemic) [Compound 62, rac-(1R,6S)-2-((7-((2-cyano-[1,1′-biphenyl]-3-yl)methoxy)-5-methoxy-2,3-dihydro-1H-inden-4-yl)methyl)-2-azabicyclo[4.1.0]heptane-1-carboxylic acid] | < 100 nM |
| CC(=O)NCCNCc1c(OCc2cncc(F)c2)cc(OCc2cccc(-c3ccccc3)c2C)c2c1CCC2 [Compound 10, N-(2-(((5-((5-fluoropyridin-3-yl)methoxy)-7-((2-methyl-[1,1′-biphenyl]-3-yl)methoxy)-2,3-dihydro-1H-inden-4-yl)methyl)amino)ethyl)acetamide] | < 100 nM |
| CC(=O)NCCNCc1c(OCc2cccc(C#N)c2)cc(OCc2cccc(-c3ccccc3)c2C)c2c1CCC2 [Compound 34, N-(2-(((5-((3-cyanobenzyl)oxy)-7-((2-methyl-[1,1′-biphenyl]-3-yl)methoxy)-2,3-dihydro-1H-inden-4-yl)methyl)amino)ethyl)acetamide] | < 100 nM |
| Cc1c(COc2ccc(CNCC(=O)O)c3c2CCC3)cccc1-c1ccccc1 [Compound 20, ((7-((2-methyl-[1,1′-biphenyl]-3-yl)methoxy)-2,3-dihydro-1H-inden-4-yl)methyl)glycine] | 100 to 500 nM |
| COc1cc(OCc2cccc(-c3ccccc3)c2C#N)c2c(c1CNCCNC(C)=O)CCC2 [Compound 56, N-(2-(((7-((2-cyano-[1,1′-biphenyl]-3-yl)methoxy)-5-methoxy-2,3-dihydro-1H-inden-4-yl)methyl)amino)ethyl)acetamide] | < 100 nM |
| Cc1c(COc2ccc(CNCCC(=O)O)c3c2CCC3)cccc1-c1ccccc1 [Compound 21, 3-(((7-((2-methyl-[1,1′-biphenyl]-3-yl)methoxy)-2,3-dihydro-1H-inden-4-yl)methyl)amino)propanoic acid] | > 500 nM |
| COc1cc(OCc2cccc(-c3ccc4c(c3)OCCO4)c2C)c2c(c1CN1C[C@H](O)C[C@H]1C(=O)O)CCC2 [Compound 85, (2S,4R)-1-((7-((3-(2,3-dihydrobenzo[b][1,4]dioxin-6-yl)-2-methylbenzyl)oxy)-5-methoxy-2,3-dihydro-1H-inden-4-yl)methyl)-4-hydroxypyrrolidine-2-carboxylic acid] | 100 to 500 nM |
| Cc1c(COc2cc(OCc3cncc(C#N)c3)c(CN3CCC[C@@H]4C[C@@]43C(=O)O)c3c2CCC3)cccc1-c1ccccc1 (racemic) [Compound 51, rac-(1R,6S)-2-((5-((5-cyanopyridin-3-yl)methoxy)-7-((2-methyl-[1,1′-biphenyl]-3-yl)methoxy)-2,3-dihydro-1H-inden-4-yl)methyl)-2-azabicyclo[4.1.0]heptane-1-carboxylic acid] | < 100 nM |
| CC(=O)NCCNCc1c(OC[C@H]2C[C@H]2C(=O)O)cc(OCc2cccc(-c3ccccc3)c2C)c2c1CCC2 [Compound 83, (1R,2S)-2-(((4-(((2-acetamidoethyl)amino)methyl)-7-((2-methyl-[1,1′-biphenyl]-3-yl)methoxy)-2,3-dihydro-1H-inden-5-yl)oxy)methyl)cyclopropane-1-carboxylic acid] | 100 to 500 nM |
| Cc1c(COc2cc(OCc3cncc(C#N)c3)c(CN3CCCC[C@H]3C(=O)O)c3c2CCC3)cccc1-c1ccccc1 [Compound 46, (S)-1-((5-((5-cyanopyridin-3-yl)methoxy)-7-((2-methyl-[1,1′-biphenyl]-3-yl)methoxy)-2,3-dihydro-1H-inden-4-yl)methyl)piperidine-2-carboxylic acid] | < 100 nM |
| CC(=O)NCCNCc1cc(Cl)c(OCc2cccc(-c3ccccc3)c2C)c2c1CCC2 [Compound 30, N-(2-(((6-chloro-7-((2-methyl-[1,1′-biphenyl]-3-yl)methoxy)-2,3-dihydro-1H-inden-4-yl)methyl)amino)ethyl)acetamide] | 100 to 500 nM |
| CC(=O)NC1CCCN(Cc2c(OCc3cccc(C#N)c3)cc(OCc3cccc(-c4ccccc4)c3C)c3c2CCC3)C1 (centres unmarked) [Compound 15, N-(1-((5-((3-cyanobenzyl)oxy)-7-((2-methyl-[1,1′-biphenyl]-3-yl)methoxy)-2,3-dihydro-1H-inden-4-yl)methyl)piperidin-3-yl)acetamide] | < 100 nM |
| COc1cc(OCc2cccc(-c3ccccc3)c2C#N)c2c(c1CN1CCCC[C@H]1C(=O)O)CCC2 [Compound 55, (S)-1-((7-((2-cyano-[1,1′-biphenyl]-3-yl)methoxy)-5-methoxy-2,3-dihydro-1H-inden-4-yl)methyl)piperidine-2-carboxylic acid] | < 100 nM |
| CC(=O)NCCNCc1c(OCc2cccc(C(N)=O)c2)cc(OCc2cccc(-c3ccccc3)c2C)c2c1CCC2 [Compound 95, 3-(((4-(((2-acetamidoethyl)amino)methyl)-7-((2-methyl-[1,1′-biphenyl]-3-yl)methoxy)-2,3-dihydro-1H-inden-5-yl)oxy)methyl)benzamide] | < 100 nM |
| COc1cc(OCc2cccc(-c3ccccc3)c2C#N)c2c(c1CN1CCOC[C@H]1C(=O)O)CCC2 [Compound 59, (S)-4-((7-((2-cyano-[1,1′-biphenyl]-3-yl)methoxy)-5-methoxy-2,3-dihydro-1H-inden-4-yl)methyl)morpholine-3-carboxylic acid] | < 100 nM |
| Cc1c(COc2ccc(CN3CCCC[C@H]3C(=O)O)c3c2CCC3)cccc1-c1ccccc1 [Compound 1, (S)-1-((7-((2-methyl-[1,1′-biphenyl]-3-yl)methoxy)-2,3-dihydro-1H-inden-4-yl)methyl) piperidine-2-carboxylic acid] | 100 to 500 nM |
| Cc1c(COc2ccc(CNC(C)CC(=O)O)c3c2CCC3)cccc1-c1ccccc1 (centres unmarked) [Compound 23, 3-(((7-((2-methyl-[1,1′-biphenyl]-3-yl)methoxy)-2,3-dihydro-1H-inden-4-yl)methyl)amino)butanoic acid] | > 500 nM |
| COc1cc(OCc2cccc(-c3ccccc3)c2C)c2c(c1CN1CC3(CC3)C[C@H]1C(=O)O)CCC2 [Compound 11, (S)-5-((5-methoxy-7-((2-methyl-[1,1′-biphenyl]-3-yl)methoxy)-2,3-dihydro-1H-inden-4-yl)methyl)-5-azaspiro[2.4]heptane-6-carboxylic acid] | < 100 nM |
